# Test results published in US9642941B2, “Implantable modular hydrogel for salivary gland restoration” (WILLIAM MARSH RICE UNIVERSITY, priority 2011, dated 2017).
# Counter-ions that a name gives are not always drawn.
# B1: FGF7: heparin-binding growth factor (protein, UniProt P21781 32-194, looked up)
# Fibroblast growth factor 7: CNDMTPEQMATNVNCSSPERHTRSYDYMEGGDIRVRRLFCRTQWYLRIDKRGKVKGTQEMKNNYNIMEIRTVAVGIVAIKGVESEFYLAMNKEGKLYAKKECNEDCNFKELILENHYNTYASAKWTHNGGEMFVALNQKGIPVRGKKTKKEQKTAHFLPMAIT
# Columns and labels:
# M3 muscarinic receptors = biological target: T1, M3 muscarinic receptors (Homo sapiens, UniProt P20309); assay: Intracellular calcium release (Fluo-4) in acini-like structures on 2.5D / in 3D HA hydrogels treated with acetylcholine; assay type: cell-based
# T1 construct: Parotid gland tissue was collected from patients aged 40-55 years undergoing surgery; endogenous in cells; host or cells: primary acinar-like cells (passage 3-4) from patients' parotid gland tissue, on 2.5D or in 3D HA hydrogels
# Protocol: Intracellular calcium [Cai] release studies utilized the calcium indicator dye, Fluo-4 (Invitrogen). Cells were seeded at 1×10^5 cells/gel in cell culture inserts as before. Cells on 2.5D and in 3D hydrogels were cultured for 12 days. Fluo-4 was suspended in 0.8% (w/v) pluronic acid and mixed with 8 mL of 1× Hanks' balanced salt solution (HBSS) without calcium. Cell-seeded hydrogels were incubated with Fluo-4 suspended in pluronic acid for 30 min at 37° C. After 30 min, cells were washed twice with 1×HBSS, and incubated for 30 min in HBSS. After loading and recovery, hydrogels were imaged using a Zeiss LSM 5-live high-speed confocal microscope. Baseline fluorescence was established for 30 sec at 488 nm. Cell-seeded hydrogels then were treated with various concentrations (ranging from 50 μM-500 μM) of the muscarinic agonist acetylcholine chloride. 2.5D hydrogels were flipped so that cells were on the bottom of the chamber slides. 50 μL of the agonist was added to the bottom of the chamber containing 50 μL medium. 3D hydrogels were suspended in 100 μL of medium and treated with 100 μL of agonist. Resulting increases in Cai levels were captured in a series of image scans and by graph plot.
# To stimulate fluid secretion, salivary acinar-like cells were treated with acetylcholine. Addition of 50 μM acetylcholine induced a robust calcium response in self-assembling acini-like structures cultured on 2.5D hydrogels (FIG. 27A). Acini-like structures on hydrogels were imaged without saline buffer to minimize movement of hydrogels in the liquid. The calcium response peak seen at ˜5 min can be attributed to the diffusion time needed by the neurotransmitter to pass through the hydrogel to the cells. Treatment with 100 μM acetylcholine produced calcium oscillations lasting over 20 min in multiple cells within a self-assembled acinus-like structure (FIG. 27B). Oscillations from different structures varied in intensity. […] Experiments were performed three times with each agonist concentration, on separate hydrogel cultures. Data were recorded from 3-4 acini-like structures each time. […] Positive controls used a hypotonic solution to induce a calcium response.
# Treatment with 50 μM acetylcholine induced calcium oscillations that lasted over 20 minutes in spheroid structures encapsulated in 3D hydrogels (FIG. 27D). […] Compared to the response seen among 2.5D cultures, the increase in [Ca^2+] was quicker in 3D, where cells responded to acetylcholine treatment within 30 seconds while cells in 2.5D took nearly 300 seconds. […] Thus, cell response to acetylcholine agonist in 3D was faster, more intense, and more prolonged than cell response in 2.5D.
# β adrenergic receptors = assay: Exocytic granule production and α-amylase staining in salivary acinar-like cells on/in HA hydrogels; assay type: cell-based, human; settings: 50 μM
# Protocol: Cells seeded (1×10^5 cells/gel) on/in hydrogels were treated with varying concentrations (10 μM to 100 μM) of isoproterenol hydrochloride (Santa Cruz Biotechnology) and norepinephrine hydrochloride (Sigma), each of which induce granule production and exocytosis, for various time points from 15 min-2 h. After treatment, culture medium was removed and cells were fixed immediately with 100% methanol and stained with α-amylase for microscopic analysis. Functionality of salivary acinar-like cells was assessed by response to neurotransmitter agonists. Norepinephrine binding to the β adrenergic receptors activates the protein secretion pathway. In this study, the sympathomimetic β adrenergic agonists, norepinephrine and isoproterenol, were used to stimulate protein production and exocytosis. Salivary acinar-like cells cultured on/in hydrogels were treated with 50 μM isoproterenol for 15 min to 1 hr. After treatment, cells were immediately fixed and stained, then analyzed for granule formation and α-amylase expression. FIGS. 21-25 quantify the extent of amylase response, using the intensity of fluorescence staining as a surrogate. […] Exocytosing granules stained in red for α-amylase are seen budding out from the cell membrane in FIG. 21C, E, F. Granule production has been quantified in FIG. 26. Upon stimulation, acini-like structures in 3D also secreted α-amylase into the hydrogel (FIG. 21E, F). α-Amylase staining is quantified in FIGS. 23-25.
# HP = settings: read-out: Dissociation constant (Kd) of complex with HP; cited from earlier work
# [1] = test system: spheroids in 3D HA hydrogels; assay: FGF7 treatment of spheroids in 3D HA hydrogels; assay type: cell-based, human; settings: 25 ng/mL FGF7 daily for 10 d and 12 d
# Protocol: FIG. 14 is a picture depicting organized spheroids. […] (a) Untreated cells at 20 d culture. (b,c) Spheroids treated with 25 ng/mL FGF7 daily for (b) 10 d and (c) 12 d.
# Functional neotissue glands must advance beyond spherical lumen to initiate directional delivery of secretory products and recreate the differentiated roles of fluid producing acinar and fluid resorbing ductal cells. Recent work identified the specific roles of FGF7 and FGF10 in inducing ductal elongation and branching, respectively. These roles are tied to the cells' perceived gradients of each GF from a point source, defined by diffusion through ECM and controlled by their binding to HS (in Pln and other proteoglycans). […] When delivered through media, FGF7 may induce overall larger spheroids (as expected, when FGF7 is not delivered from a directional point source). […] HGPs are an optimal mechanism for directional controlled delivery of FGF7 and FGF10.
# T1 sequence (P20309 whole entry): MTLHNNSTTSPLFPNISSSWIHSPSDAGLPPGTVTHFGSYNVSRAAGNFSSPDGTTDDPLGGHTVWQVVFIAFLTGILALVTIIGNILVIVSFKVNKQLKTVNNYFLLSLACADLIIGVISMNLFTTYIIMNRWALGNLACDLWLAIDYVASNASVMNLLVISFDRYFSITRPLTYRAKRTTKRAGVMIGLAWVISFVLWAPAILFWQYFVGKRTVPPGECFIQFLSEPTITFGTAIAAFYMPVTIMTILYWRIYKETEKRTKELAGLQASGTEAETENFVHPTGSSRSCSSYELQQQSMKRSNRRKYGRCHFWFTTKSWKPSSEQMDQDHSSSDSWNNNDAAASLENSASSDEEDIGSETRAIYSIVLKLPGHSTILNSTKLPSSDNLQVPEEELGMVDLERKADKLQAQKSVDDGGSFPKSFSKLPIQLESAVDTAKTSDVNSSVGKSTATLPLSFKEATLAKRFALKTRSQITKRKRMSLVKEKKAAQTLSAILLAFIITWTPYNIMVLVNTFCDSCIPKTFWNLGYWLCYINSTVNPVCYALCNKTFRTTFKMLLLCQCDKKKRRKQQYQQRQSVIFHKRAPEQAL
molecule,measurement,setting,value
"CC(=O)OCC[N+](C)(C)C.[Cl-] [ACh, acetylcholine chloride]",Average Peak Height (Intensity),"M3 muscarinic receptors; 2.5D hydrogel, 50 μM ACh",58 ± 11
same,Average Peak Length,"M3 muscarinic receptors; 2.5D hydrogel, 50 μM ACh",42 ± 21 s
same,Percent Responders,"M3 muscarinic receptors; 2.5D hydrogel, 50 μM ACh",33%
same,Average Peak Height (Intensity),"M3 muscarinic receptors; 2.5D hydrogel, 100 μM ACh",10 ± 3
same,Average Peak Length,"M3 muscarinic receptors; 2.5D hydrogel, 100 μM ACh",46 ± 9 s
same,Percent Responders,"M3 muscarinic receptors; 2.5D hydrogel, 100 μM ACh",22%
same,Time of calcium response peak,"M3 muscarinic receptors; 2.5D hydrogels, 50 μM",~5 min
same,Duration of calcium oscillations,"M3 muscarinic receptors; 2.5D hydrogels, 100 μM",over 20 min
same,Calcium oscillations,"M3 muscarinic receptors; 3D cultures, 100 μM",induced similar oscillations
same,Average Peak Height (Intensity),"M3 muscarinic receptors; 3D hydrogel, 50 μM ACh",39 ± 6
same,Average Peak Length,"M3 muscarinic receptors; 3D hydrogel, 50 μM ACh",164 ± 8 s
same,Percent Responders,"M3 muscarinic receptors; 3D hydrogel, 50 μM ACh",43%
same,Average Peak Height (Intensity),"M3 muscarinic receptors; 3D hydrogel, 100 μM ACh",14 ± 8
same,Average Peak Length,"M3 muscarinic receptors; 3D hydrogel, 100 μM ACh",180 ± 34 s
same,Percent Responders,"M3 muscarinic receptors; 3D hydrogel, 100 μM ACh",16%
same,Duration of calcium oscillations,"M3 muscarinic receptors; 3D hydrogels, 50 μM",over 20 minutes
same,Time until cells responded with increase in [Ca2+],M3 muscarinic receptors; cells in 2.5D,~300 s
same,Time until cells responded with increase in [Ca2+],M3 muscarinic receptors; cells in 3D,≤ 30 s
"CC(C)NCC(O)c1ccc(O)c(O)c1 (stereo not drawn) [isoproterenol, isoproterenol hydrochloride]",α-Amylase localisation,β adrenergic receptors; 15 min,α-amylase near the membrane periphery
same,Granule formation and α-amylase staining,"β adrenergic receptors; 1 h, 2.5D and 3D",presence of granules and robust α-amylase staining
VEGF,Kd,HP,165 nM
"NC[C@H](O)c1ccc(O)c(O)c1 [norepinephrine, norepinephrine hydrochloride]",Secretory granules,β adrenergic receptors; 2.5D and 3D,displayed multiple secretory granules
B1,Spheroid size,[1],increases spheroid size
same,Kd,HP,30 to 49 nM
